Measurements: ChEMBL document CHEMBL1201862, “PubChem BioAssay data set” (2004)
Activity calls are given as the source filed them.

How the values were obtained:
Beta-galactosidase = Beta-galactosidase (Escherichia coli, UniProt Q8VNN2); assay: PubChem AID 485352; assay type: functional
[1] = target: T1, Type-1 angiotensin II receptor (Homo sapiens, UniProt P30556); assay: AT1 receptor antagonists, dose response, selectivity assay for APJ receptor antagonist project, cell-based, uHTS hits (AID 463214); assay type: functional;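 note: antagonist potency against angiotensin II stimulated AT1 response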
T1 sequence (P30556 whole entry): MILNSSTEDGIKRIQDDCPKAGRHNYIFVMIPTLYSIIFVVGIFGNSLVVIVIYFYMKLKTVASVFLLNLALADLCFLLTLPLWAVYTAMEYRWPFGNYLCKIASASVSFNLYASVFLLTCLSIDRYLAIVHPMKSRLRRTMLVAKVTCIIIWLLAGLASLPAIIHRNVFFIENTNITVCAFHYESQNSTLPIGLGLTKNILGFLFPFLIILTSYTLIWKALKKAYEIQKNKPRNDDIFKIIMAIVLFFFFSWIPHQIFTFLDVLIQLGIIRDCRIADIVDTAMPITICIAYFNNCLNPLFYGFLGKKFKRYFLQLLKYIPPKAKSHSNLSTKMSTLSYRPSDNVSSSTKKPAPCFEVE

[2] = target: Tyrosine-protein kinase receptor TYRO3 (Homo sapiens, UniProt Q06418); assay type: functional;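 note: TYRO3 value obtained as one member of a kinome-wide profiling panel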
[3] = target: Ribosomal protein S6 kinase alpha-5 (Homo sapiens, UniProt O75582); assay type: functional
[4] = target: Serine/threonine-protein kinase pim-3 (Homo sapiens, UniProt Q86V86); assay type: functional;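 note: value obtained as one member of a broad kinase panel profiling effort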
[5] = target: Mitogen-activated protein kinase 12 (Homo sapiens, UniProt P53778); assay type: functional;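 note: measured as one member of a kinome-wide kinase profiling panel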
[6] = target: Tyrosine-protein kinase FRK (Homo sapiens, UniProt P42685); assay type: functional;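 note: FRK tested as one member of a kinome panel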
[7] = target: T2, Sentrin-specific protease 8 (Homo sapiens, UniProt Q96LD8); assay: SENP8 protease inhibitors, SAR follow-up, biochemical, luminescence (AID 504501); assay type: functional
T2 sequence (Q96LD8 whole entry): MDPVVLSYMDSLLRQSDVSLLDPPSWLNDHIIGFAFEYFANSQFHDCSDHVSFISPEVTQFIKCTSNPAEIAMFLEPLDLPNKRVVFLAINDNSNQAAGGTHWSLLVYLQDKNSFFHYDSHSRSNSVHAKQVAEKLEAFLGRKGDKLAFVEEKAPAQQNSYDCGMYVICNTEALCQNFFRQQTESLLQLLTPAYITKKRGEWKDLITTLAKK

[8] = target: T3, Sentrin-specific protease 6 (Homo sapiens, UniProt Q9GZR1); assay: SAR Analysis of small molecule inhibitors of Sentrin-specific protease 6 (SENP6) using a Luminescent assay. [Related pubchem assays (depositor defined):AID2582, AID2599]; assay type: functional
T3 sequence (Q9GZR1 whole entry): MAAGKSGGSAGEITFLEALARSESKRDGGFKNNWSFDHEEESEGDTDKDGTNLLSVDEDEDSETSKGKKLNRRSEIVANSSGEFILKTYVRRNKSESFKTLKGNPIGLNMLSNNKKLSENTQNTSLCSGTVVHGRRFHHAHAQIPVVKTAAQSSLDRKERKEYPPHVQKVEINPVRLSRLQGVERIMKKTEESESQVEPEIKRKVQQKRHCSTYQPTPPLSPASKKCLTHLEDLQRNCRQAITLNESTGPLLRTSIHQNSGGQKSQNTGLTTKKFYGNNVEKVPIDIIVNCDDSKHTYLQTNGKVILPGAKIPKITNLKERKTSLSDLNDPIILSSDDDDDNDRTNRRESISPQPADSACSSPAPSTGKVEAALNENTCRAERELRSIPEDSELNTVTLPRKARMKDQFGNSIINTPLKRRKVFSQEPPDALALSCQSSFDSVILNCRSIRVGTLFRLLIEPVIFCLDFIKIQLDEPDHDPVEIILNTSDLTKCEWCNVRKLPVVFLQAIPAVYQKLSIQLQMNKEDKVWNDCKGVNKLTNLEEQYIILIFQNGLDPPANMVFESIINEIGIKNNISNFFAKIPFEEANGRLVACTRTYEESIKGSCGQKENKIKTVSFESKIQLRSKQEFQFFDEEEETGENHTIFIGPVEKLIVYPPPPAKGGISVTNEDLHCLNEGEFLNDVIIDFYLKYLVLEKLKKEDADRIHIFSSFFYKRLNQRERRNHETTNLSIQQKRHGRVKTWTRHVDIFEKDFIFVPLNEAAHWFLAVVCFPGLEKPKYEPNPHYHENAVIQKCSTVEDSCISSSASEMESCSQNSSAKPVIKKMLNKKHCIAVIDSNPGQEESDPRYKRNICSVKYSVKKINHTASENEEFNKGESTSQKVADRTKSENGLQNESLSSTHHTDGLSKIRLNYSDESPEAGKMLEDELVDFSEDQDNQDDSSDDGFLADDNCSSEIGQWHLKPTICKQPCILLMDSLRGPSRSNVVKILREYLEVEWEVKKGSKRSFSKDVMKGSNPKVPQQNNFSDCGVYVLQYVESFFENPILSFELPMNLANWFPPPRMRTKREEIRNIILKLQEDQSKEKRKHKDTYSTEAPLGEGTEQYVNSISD

[9] = target: T4, Nuclear receptor subfamily 0 group B member 1 (Homo sapiens, UniProt P51843); assay type: functional, cell-based;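 note: HEK293T cells transfected with SF-1 and DAX-1 plus StAR promoter luciferase reporter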
T4 sequence (P51843 whole entry): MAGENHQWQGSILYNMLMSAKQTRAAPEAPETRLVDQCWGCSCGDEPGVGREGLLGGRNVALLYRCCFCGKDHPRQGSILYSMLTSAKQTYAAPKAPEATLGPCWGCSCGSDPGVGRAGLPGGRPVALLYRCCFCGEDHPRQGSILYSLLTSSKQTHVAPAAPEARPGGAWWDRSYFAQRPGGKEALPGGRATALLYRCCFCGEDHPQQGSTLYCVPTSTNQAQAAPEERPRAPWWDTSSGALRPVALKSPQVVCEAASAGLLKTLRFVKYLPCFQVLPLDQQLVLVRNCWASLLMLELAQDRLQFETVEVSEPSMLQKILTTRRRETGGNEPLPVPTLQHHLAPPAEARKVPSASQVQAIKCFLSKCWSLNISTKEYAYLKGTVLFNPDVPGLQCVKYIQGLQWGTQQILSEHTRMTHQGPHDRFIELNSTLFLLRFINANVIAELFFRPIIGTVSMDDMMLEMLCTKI

[10] = target: Peroxisome proliferator-activated receptor gamma/Nuclear receptor coactivator 1 (Homo sapiens, UniProt P37231); assay type: functional;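 note: agonist potency as compounds enhance coactivator SRC-1 recruitment to PPARgamma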
H4 = assay: Luminescence Cell-Based Dose Response HTS to Identify Activators of 5'UTR Stem-Loop Driven Prion Protein mRNA Translation in H4 Neuroglioblastoma Cells. [Related pubchem assays: 1829 (Project Summary), 1814 (Primary HTS)]; assay type: functional; settings: Homo sapiens
[11] = target: Induced myeloid leukemia cell differentiation protein Mcl-1 (Homo sapiens, UniProt Q07820); assay type: functional
[12] = HeLa cell cytotoxicity, dose response, cytotoxicity control for MgcRacGAP inhibitor project (AID 624300); assay type: functional

Induced myeloid leukemia cell differentiation protein Mcl-1, sequence (Q07820 whole entry): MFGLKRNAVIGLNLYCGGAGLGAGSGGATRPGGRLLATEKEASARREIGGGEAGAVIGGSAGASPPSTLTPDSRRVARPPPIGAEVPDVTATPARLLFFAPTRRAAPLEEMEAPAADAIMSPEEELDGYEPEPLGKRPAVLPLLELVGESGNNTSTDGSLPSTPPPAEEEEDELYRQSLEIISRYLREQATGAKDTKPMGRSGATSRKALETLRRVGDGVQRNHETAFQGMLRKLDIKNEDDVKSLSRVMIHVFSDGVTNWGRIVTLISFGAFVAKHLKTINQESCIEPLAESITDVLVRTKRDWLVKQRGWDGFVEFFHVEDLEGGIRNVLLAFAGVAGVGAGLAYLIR
Peroxisome proliferator-activated receptor gamma/Nuclear receptor coactivator 1, sequence (P37231 whole entry): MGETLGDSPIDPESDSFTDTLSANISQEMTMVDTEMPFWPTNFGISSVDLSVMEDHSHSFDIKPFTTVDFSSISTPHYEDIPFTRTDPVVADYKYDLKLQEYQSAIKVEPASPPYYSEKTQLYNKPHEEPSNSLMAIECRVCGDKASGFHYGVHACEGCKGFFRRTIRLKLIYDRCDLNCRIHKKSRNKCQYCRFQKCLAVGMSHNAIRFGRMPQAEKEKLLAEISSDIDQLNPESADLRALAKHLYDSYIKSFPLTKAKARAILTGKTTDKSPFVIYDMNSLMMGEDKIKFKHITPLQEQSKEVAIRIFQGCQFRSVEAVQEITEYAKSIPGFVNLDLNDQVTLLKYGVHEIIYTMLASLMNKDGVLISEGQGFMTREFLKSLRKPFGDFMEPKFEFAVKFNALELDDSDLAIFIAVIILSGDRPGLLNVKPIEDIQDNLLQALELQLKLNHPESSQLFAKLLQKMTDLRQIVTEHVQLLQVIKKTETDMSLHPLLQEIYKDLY
Peroxisome proliferator-activated receptor gamma/Nuclear receptor coactivator 1, sequence (Q15788 whole entry, further chain): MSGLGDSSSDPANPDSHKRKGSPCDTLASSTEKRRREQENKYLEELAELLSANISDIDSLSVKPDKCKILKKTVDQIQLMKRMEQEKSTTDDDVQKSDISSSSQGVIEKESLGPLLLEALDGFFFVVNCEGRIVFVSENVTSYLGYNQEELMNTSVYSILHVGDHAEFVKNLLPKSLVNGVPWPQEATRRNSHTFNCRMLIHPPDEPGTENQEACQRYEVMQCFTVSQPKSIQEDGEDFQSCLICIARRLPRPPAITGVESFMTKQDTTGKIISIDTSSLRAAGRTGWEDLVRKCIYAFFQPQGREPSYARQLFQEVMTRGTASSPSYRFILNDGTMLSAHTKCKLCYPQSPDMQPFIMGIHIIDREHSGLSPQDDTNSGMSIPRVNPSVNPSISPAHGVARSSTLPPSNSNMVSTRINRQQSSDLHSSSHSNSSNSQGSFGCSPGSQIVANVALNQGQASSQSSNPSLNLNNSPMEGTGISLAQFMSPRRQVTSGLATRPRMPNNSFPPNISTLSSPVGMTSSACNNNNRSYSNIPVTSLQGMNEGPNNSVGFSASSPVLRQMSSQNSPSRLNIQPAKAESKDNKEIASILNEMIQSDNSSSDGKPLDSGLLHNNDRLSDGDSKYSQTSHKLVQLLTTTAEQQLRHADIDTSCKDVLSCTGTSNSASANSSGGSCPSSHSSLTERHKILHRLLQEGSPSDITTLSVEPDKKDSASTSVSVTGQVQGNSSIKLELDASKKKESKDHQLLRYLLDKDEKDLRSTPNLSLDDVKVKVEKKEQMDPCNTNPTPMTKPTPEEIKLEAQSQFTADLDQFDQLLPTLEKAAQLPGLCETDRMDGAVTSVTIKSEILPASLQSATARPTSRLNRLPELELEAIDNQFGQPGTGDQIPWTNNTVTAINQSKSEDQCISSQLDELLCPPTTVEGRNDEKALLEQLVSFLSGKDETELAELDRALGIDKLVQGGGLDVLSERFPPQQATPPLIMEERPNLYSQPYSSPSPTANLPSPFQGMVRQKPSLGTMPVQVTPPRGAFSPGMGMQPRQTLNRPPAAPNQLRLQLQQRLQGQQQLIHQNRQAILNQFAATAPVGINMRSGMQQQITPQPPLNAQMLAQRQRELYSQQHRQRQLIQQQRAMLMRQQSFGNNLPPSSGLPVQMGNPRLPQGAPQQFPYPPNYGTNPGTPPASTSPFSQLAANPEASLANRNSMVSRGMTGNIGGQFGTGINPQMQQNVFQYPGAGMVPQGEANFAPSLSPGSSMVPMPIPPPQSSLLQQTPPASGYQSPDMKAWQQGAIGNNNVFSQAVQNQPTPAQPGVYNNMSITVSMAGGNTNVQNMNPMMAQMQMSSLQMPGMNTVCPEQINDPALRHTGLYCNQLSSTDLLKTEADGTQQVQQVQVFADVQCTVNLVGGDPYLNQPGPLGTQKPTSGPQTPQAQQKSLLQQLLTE
Beta-galactosidase, sequence (Q8VNN2 whole entry): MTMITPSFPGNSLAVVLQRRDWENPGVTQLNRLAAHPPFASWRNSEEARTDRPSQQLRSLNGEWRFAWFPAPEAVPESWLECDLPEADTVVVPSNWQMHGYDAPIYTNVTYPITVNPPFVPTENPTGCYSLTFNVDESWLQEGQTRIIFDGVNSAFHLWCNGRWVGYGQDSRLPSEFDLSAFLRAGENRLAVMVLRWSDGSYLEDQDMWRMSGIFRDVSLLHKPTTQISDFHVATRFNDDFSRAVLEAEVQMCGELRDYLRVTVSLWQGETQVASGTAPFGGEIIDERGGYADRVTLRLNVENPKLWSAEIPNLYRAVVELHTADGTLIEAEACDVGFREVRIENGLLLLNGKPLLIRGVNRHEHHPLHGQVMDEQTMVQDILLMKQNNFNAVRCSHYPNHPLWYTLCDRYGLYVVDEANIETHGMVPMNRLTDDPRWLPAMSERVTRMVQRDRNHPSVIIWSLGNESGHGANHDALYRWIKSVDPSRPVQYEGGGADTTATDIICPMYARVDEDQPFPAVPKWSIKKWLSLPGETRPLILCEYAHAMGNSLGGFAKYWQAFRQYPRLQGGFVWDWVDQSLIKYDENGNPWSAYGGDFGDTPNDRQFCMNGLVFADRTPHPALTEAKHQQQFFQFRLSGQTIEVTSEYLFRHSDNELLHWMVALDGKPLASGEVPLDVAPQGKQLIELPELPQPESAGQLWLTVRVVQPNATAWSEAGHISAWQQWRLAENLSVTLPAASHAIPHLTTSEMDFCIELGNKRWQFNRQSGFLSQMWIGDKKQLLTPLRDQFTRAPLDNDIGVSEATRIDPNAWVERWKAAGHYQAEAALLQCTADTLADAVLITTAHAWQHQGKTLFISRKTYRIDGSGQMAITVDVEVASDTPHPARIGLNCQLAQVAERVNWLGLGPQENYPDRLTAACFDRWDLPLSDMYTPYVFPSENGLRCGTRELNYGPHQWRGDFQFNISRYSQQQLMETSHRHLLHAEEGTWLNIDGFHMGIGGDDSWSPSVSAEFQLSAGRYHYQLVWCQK
Tyrosine-protein kinase receptor TYRO3, sequence (Q06418 whole entry): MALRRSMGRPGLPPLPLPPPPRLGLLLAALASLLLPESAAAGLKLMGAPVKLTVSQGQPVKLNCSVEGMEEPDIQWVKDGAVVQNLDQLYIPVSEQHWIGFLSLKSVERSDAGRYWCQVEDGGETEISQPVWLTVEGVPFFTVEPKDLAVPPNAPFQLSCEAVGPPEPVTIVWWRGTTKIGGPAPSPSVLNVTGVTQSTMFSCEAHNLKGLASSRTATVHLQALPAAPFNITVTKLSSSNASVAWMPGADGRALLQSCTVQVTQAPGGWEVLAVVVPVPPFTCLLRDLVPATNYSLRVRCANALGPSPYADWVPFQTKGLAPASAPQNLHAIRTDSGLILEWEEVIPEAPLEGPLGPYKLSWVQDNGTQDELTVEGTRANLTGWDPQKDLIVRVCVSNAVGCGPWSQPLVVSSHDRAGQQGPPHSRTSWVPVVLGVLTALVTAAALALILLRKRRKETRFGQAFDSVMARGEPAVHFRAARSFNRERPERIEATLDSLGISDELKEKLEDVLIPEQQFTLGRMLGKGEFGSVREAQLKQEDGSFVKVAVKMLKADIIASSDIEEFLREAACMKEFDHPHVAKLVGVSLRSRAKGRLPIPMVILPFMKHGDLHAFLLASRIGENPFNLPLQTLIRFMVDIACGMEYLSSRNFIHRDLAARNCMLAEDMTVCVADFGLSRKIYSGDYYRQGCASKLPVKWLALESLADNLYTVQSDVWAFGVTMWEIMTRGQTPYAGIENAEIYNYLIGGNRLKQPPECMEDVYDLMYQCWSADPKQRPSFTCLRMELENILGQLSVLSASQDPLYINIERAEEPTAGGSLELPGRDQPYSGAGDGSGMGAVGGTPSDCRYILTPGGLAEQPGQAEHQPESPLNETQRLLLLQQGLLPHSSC
Tyrosine-protein kinase FRK, sequence (P42685 whole entry): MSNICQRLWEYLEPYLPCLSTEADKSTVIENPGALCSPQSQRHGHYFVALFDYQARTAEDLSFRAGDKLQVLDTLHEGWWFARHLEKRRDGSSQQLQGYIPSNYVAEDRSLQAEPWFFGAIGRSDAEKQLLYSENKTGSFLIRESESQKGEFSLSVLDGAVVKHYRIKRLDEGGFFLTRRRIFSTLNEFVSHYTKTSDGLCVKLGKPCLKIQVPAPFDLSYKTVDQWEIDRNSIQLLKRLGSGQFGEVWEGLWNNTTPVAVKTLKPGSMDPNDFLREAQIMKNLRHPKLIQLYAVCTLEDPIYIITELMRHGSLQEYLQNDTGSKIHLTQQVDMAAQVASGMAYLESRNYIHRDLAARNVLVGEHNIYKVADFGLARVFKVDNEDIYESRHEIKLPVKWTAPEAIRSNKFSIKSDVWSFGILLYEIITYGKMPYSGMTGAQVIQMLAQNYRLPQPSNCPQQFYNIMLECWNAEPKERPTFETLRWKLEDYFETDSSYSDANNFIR

Cc1ccc(Nc2cc(C)nn2-c2nc(C)cc(O)n2)cc1
EC50 (Beta-galactosidase): > 40 µM (inactive) | IC50 [1]: 1.77 µM (active)

O=C1NC(=S)SC1=C1C(=O)Nc2ccc(Br)cc21
Ki [2]: > 2 µM (inactive) | Ki [3]: > 2 µM (inactive) | Ki [4]: 0.0501 µM (active) | Ki [5]: > 6.31 µM (inactive) | Ki [6]: > 2.51 µM (inactive)

Cc1cnc(NC(=O)c2sc3ccccc3c2Cl)s1
IC50 [7]: 3.78 µM (active) | IC50 [8]: 3.95 µM (active) | IC50 [9]: > 67.5 µM (inactive)

CN(C)c1ncc(C2=C(Cl)C(=O)C(N3CCCC3)=C(Cl)C2=O)s1
EC50 [10]: > 79.4 µM (not active) | EC50 (H4): 34.1 µM (active) | IC50 [11]: 26.4 µM (active) | CC50 [12]: 18.7 µM (active)
